Measurements as given in PMC9203742 (Nature Communications, 2022).
Several values for one entry are separate records, joined by “and”; a condition that tells them apart may be missing. Identical values can stand only once.

Key:
PC12 cells = experiment: NGF-induced neurite outgrowth in differentiated PC12 cells; format: cell-based; parameters: neurite outgrowth, individual values #1-#20 (Fig.4b): unit not given here; details: for neurite outgrowth, individual values #1-#20 (Fig.4b): differentiated PC12 cells
Method: After incubation for 3 days, PC12 cells bearing neurites were randomly selected, and the length of the longest neurite in each cell was measured using ImageJ package Fiji.

mGlu1(N264H) mutant = biological target: T1, mGlu1(N264H) mutant (Rattus norvegicus, UniProt P23385, N264H); experiment: Inositol-1-phosphate (IP1) accumulation assay, HEK293 cells expressing mGlu1(N264H); format: cell-based
T1 construct: expressed in transfected cells; host or cells: HEK293
T1 sequence (P23385 19-1199 N264H): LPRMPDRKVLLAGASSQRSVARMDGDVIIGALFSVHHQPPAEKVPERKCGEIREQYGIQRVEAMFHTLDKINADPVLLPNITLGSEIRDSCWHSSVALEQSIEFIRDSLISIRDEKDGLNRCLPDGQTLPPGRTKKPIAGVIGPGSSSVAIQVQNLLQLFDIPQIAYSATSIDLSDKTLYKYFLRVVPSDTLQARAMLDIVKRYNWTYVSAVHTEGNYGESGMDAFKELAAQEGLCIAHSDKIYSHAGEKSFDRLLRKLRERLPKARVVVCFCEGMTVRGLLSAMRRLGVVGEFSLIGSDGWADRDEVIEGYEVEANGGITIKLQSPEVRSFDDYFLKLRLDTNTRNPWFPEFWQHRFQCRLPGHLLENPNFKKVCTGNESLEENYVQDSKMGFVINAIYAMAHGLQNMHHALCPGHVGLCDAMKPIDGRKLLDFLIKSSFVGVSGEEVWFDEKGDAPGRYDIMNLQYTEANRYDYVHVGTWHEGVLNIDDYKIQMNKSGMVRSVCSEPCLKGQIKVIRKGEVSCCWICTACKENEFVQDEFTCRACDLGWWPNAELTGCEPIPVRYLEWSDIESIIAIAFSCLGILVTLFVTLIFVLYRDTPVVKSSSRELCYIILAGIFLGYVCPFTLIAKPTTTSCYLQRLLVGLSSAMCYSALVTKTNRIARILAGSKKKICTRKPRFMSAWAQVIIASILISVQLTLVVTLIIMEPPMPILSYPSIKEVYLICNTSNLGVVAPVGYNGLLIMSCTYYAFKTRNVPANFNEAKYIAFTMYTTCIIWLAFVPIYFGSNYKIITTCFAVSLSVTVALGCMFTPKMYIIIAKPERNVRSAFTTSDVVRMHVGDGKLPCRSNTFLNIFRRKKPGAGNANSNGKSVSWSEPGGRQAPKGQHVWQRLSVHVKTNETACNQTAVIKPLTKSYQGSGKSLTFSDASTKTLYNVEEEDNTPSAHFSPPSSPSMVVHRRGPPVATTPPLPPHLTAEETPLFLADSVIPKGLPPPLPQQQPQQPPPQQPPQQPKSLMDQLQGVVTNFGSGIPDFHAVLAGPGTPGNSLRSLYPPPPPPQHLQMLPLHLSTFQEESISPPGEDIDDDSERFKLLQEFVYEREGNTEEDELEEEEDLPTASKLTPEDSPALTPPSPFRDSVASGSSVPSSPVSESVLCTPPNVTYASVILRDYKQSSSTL

[1] = system: HEK293 cells, vector control; experiment: Fura-2 Ca2+ imaging in HEK293 cells transfected with control vector (Vec); format: cell-based; details: single-cell values #1-#20
mGlu1 A59H/N264H mutant = biological target: T2, mGlu1 A59H/N264H mutant (Rattus norvegicus, UniProt P23385, A59H/N264H); experiment: Fura-2 Ca2+ imaging in HEK293 cells expressing mGlu1 A59H/N264H; format: cell-based
T2 construct: expressed in transfected cells; host or cells: HEK293
T2 sequence (P23385 19-1199 A59H/N264H): as the sequence (P23385 19-1199 N264H) above, with A41H counted along it

[2] = system: mGlu1 construct not given; experiment: Fura-2 Ca2+ imaging in HEK293 cells, source data Suppl Fig1, right group (c18-c26); construct not given; format: cell-based, rat; details: single-cell values, cells #15-#20; right group of third block
From the text: (§1) Supplement 41467_2022_30828_MOESM6_ESM.zip/Ojima et al_source data_Suppl Fig.xlsx, sheet "Suppl Fig1" | column: Glu; NiCl2; CuCl2; ZnCl2; CdCl2; Na2PdCl2; Pd(bpy)

mGlu1 P58H/N264H mutant = biological target: T3, mGlu1 P58H/N264H mutant (Rattus norvegicus, UniProt P23385, N264H/P58H); experiment: Fura-2 Ca2+ imaging in HEK293 cells expressing mGlu1 P58H/N264H; format: cell-based
T3 construct: expressed in transfected cells; host or cells: HEK293
T3 sequence (P23385 19-1199 P58H/N264H): as the sequence (P23385 19-1199 N264H) above, with P40H counted along it

WT mGlu1 = biological target: T4, WT mGlu1 (Rattus norvegicus, UniProt P23385); format: cell-based; details: single-cell values #1-#20; WT
T4 construct: expressed in transfected cells; host or cells: HEK293
T4 sequence (P23385 19-1199): as the sequence (P23385 19-1199 N264H) above, with H246N counted along it

primary cortical neurons = experiment: Fura-2 Ca2+ imaging (abnormal Ca2+ response) in cultured cortical neurons
[3] = system: mGlu1 construct not given; experiment: Fura-2 Ca2+ imaging in HEK293 cells, source data Suppl Fig1, middle group (c9-c17); construct not given; format: cell-based, rat; details: single-cell values, cells #15-#20; middle group of third block
From the text: as §1

[4] = system: mGlu1 construct not given; experiment: Fura-2 Ca2+ imaging in HEK293 cells, source data Suppl Fig1, left group (c0-c8); construct not given; format: cell-based, rat; details: single-cell values, cells #15-#20; left group of third block
From the text: as §1

[5] = HEK293 cells, Fura-2, read-out: EC50, Ca2+ response (Δratio)

For `O=[N+]([O-])[O-].O=[N+]([O-])[O-].[Pd+2].c1ccc(-c2ccccn2)nc1` [Pd(bpy), Pd(bpy)(NO3)2], the Neurite outgrowth (PC12 cells; 100 μM, 3 days, NGF-differentiated) was “not affected”, the “neurite outgrowth, individual values #1-#20 (Fig.4b)” value (from here on “neurite outgrowth … (Fig.4b)”) (PC12 cells; [Pd(bpy)] 1 µM) was 135.681 and 134.669 and 132.267 and 127.77 and 127.752 and 123.426 and 118.782 and 113.497 and 109.51 and 107.296 and 102.296 and 95.2965 and 92.9706 and 197.35 and 182.054 and 180.267 and 162.995 and 150.48 and 140.539 and 136.598 and the “neurite outgrowth … (Fig.4b)” value (PC12 cells; [Pd(bpy)] 3 µM) was 125.971 and 116.953 and 113.154 and 109.598 and 107.841 and 88.6396 and 86.7696 and 85.5685 and 80.0833 and 79.598 and 79.4975 and 76.3259 and 73.1127 and 263.255 and 244.078 and 176.493 and 155.64 and 151.309 and 138.368 and 127.894. For the same compound, the “neurite outgrowth … (Fig.4b)” value (PC12 cells; [Pd(bpy)] 10 µM) was 140.024 and 139.953 and 126.728 and 122.326 and 118.61 and 116.811 and 111.912 and 108.941 and 106.468 and 103.983 and 102.368 and 92.3553 and 91.5269 and 184.551 and 173.426 and 168.711 and 166.853 and 164.196 and 142.426 and 140.681, the “neurite outgrowth … (Fig.4b)” value (PC12 cells; [Pd(bpy)] 30 µM) was 110.627 and 105.752 and 95.8406 and 93.1838 and 90.6274 and 88.9706 and 84.7696 and 80.5685 and 78.2548 and 76.598 and 71.4264 and 67.1127 and 62.669 and 292.527 and 200.326 and 143.51 and 135.196 and 131.456 and 117.853 and 113.811 and the “neurite outgrowth … (Fig.4b)” value (PC12 cells; [Pd(bpy)] 100 µM) was 136.698 and 130.77 and 122.681 and 121.338 and 121.125 and 116.924 and 109.267 and 109.255 and 105.042 and 102.225 and 101.456 and 94.5391 and 93.196 and 186.64 and 184.25 and 163.439 and 159.066 and 147.882 and 142.225 and 138.024. The “IP1 accumulation, single experiments” value (mGlu1(N264H) mutant; 30 µM Pd(bpy), N264H) was 1.924 and 2.4034 and 1.9034 and 1.783, the “IP3 production evaluated by IP1 accumulation” value (mGlu1(N264H) mutant; Pd(bpy) 30 µM / 10 μM (method)) was “increased” and the “Ca2+ response of individual cells (source data Suppl Fig1), Vec” value [1] was -0.004731 and 0.3238 and -0.02602 and 0.02754 and -0.0031 and 0.006285 and -0.02257 and 0.004254 and 0.003354 and -0.004338 and -0.001023 and 0.0058 and -0.01141 and 0.05108 and 0.0005846 and 0.297 and 0.004723 and 0.01628 and 0.03037. For the same compound, the EC50 (mGlu1 A59H/N264H mutant; [5]) was 3800 nM, the “Ca2+ response of individual cells (source data Suppl Fig1), A59H/N264H” value (mGlu1 A59H/N264H mutant; single-cell values #1-#20, A59H/N264H) was 0.6362 and 0.8074 and 0.5582 and 0.806 and 0.7717 and -0.01028 and 0.5677 and 0.7063 and 0.5602 and 0.7126 and 0.6578 and 1.118 and 1.1499 and 0.77 and 0.5325 and 0.4993 and 0.7176 and 0.6258 and 0.8578 and 0.6525 and the “Ca2+ response of individual cells (source data, sheet Suppl Fig1)” value [2] was 0.001923 and 0.0116 and 0.02873 and 0.01569 and 0.04602 and 0.003608. For the same compound, the EC50 (mGlu1 P58H/N264H mutant; [5]) was 1200 nM, the “Ca2+ response of individual cells (source data Suppl Fig1), P58H/N264H” value (mGlu1 P58H/N264H mutant; single-cell values #1-#20, P58H/N264H) was 1.407 and 1.235 and 0.2781 and 0.4382 and 0.4216 and 0.8249 and 0.694 and 0.5635 and 0.8179 and 0.3484 and 1.211 and 0.7928 and 0.02745 and 0.7691 and 1.112 and 0.5883 and 0.4797 and 0.3836 and 0.0272 and 0.6649 and the “Ca2+ response of individual cells (source data Suppl Fig1), WT” value (WT mGlu1) was -0.002508 and 0.03248 and -0.005946 and 0.001185 and -0.01881 and -0.01405 and 0.05177 and 0.006038 and 0.01295 and 0.02212 and 0.002477 and -0.0007231 and 0.1314 and 0.1045 and 0.02565 and -0.005715 and 0.004592 and -0.01058 and -0.003931 and 0.0524. The “abnormal Ca2+ response, ave (Fig.4d)” value (primary cortical neurons; 1 µM Pd complex) was 0.03652, the “abnormal Ca2+ response, ave (Fig.4d)” value (primary cortical neurons; 3 µM Pd complex) was -0.0001233 and the “[Ca2+]i elevation (abnormal Ca2+ response)” value (primary cortical neurons; 10 μM) was “gradual [Ca^2+]i elevation was observed”. The “abnormal Ca2+ response, ave (Fig.4d)” value (primary cortical neurons; 10 µM Pd complex) was 0.1988, the “[Ca2+]i elevation (abnormal Ca2+ response)” value (primary cortical neurons; 30 μM) was “more prominent” and the “abnormal Ca2+ response, ave (Fig.4d)” value (primary cortical neurons; 30 µM Pd complex) was 2.468. For the same compound, the “abnormal Ca2+ response, ave (Fig.4d)” value (primary cortical neurons; 100 µM Pd complex) was 3.162, the “abnormal Ca2+ response, ave (Fig.4d)” value (primary cortical neurons; 300 µM Pd complex) was 3.458 and the “Ca2+ response of individual cells (source data, sheet Suppl Fig1)” value [3] was 0.04373 and -0.04935 and -0.001077 and -0.04196 and -0.007292 and 0.01256. For the same compound, the “Ca2+ response of individual cells (source data, sheet Suppl Fig1)” value [4] was 0.505 and 0.8787 and 1.066 and 0.2405 and 0.9566 and 0.7627.
